Test results from patent US20220160488A1, “FUNCTIONALIZED PROSTHETIC INTERFACES FOR THE PREVENTION AND TREATMENT OF DENTAL CONDITIONS” (OPTIMED TECHNOLOGY, INC., priority 2019, published 2022).

Tested on: candida cultures
Experiment: Heat-treated AmB placed on candida cultures, cleared zone
Assay type: cell-based, Candida albicans
Settings: heat-treated at various temperatures, examined after 24 h; n=2
Description: FIG. 4 illustrates Candida albicans biomass assay: The antifungal properties of 3D printed PCL-PMMA was examined in a biomass assay a. To assess antifungal effects, 3D printed 1, 5 and 10 layered sample were incubated with C. albicans for 48 h and dry weight of their biofilm biomass was assessed. n=3, *p<0.05, T test. b. Electron microscopy of 1 (left), 5 (middle) and 10 (right) layered AmB containing PCL microspheres incorporated PMMA disc. c. AmB was heat-treated at various temperatures and placed on candida cultures and examined after 24 h for efficacy (left panel). Digital images were captured and the cleared zone was quantitated (right panel) n=2, *p<0.05, T test.

C[C@@H]1[C@H](O)[C@@H](C)/C=C/C=C/C=C/C=C/C=C/C=C/C=C/[C@H](O[C@@H]2O[C@H](C)[C@@H](O)[C@H](N)[C@@H]2O)C[C@@H]2O[C@](O)(C[C@@H](O)C[C@@H](O)[C@H](O)CC[C@@H](O)C[C@@H](O)CC(=O)O[C@H]1C)C[C@H](O)[C@H]2C(=O)O [AmB, Amphotericin B]
anti-fungal effects after direct heat treatment: reduced anti-fungal effects
